# Measured values from US20110110916A1, “METHODS FOR TREATING AND/OR PREVENTING CARDIOMYOPATHIES BY ERK OR JNK INHIBITION” (priority 2008, published 2011).
# Read-outs that look alike come from different tables or passages of the source.
# How the values were obtained:
# [1] = tested on: hearts from Lmna^H222P/H222P mice; assay: Quantification of myocardial fibrotic area (Gomori's trichrome); format: in vivo, mouse; conditions: 20 weeks of age; 1 mg/kg/day from 16 to 20 weeks; DMSO 20.93%±2.45%
# Text: Later-stage cardiomyopathy caused by LMNA mutations is characterized by myocardial fibrosis. […] We quantified the myocardial fibrotic area of each animal by determining the ratio of fibrotic tissue (blue stained with Gomori's trichrome) to the total tissue area in each micrograph (FIG. 8B). Hearts from DMSO-treated Lmna^H222P/H222P mice had 20.93%±2.45% fibrotic tissue per total surface examined (FIG. 8B).
# Mice were sacrificed at 20 weeks of age, and freshly removed hearts were fixed in 4% formaldehyde for 48 hours, embedded in paraffin, sectioned at 5 μm and stained with hematoxylin, eosin and Gomori's trichrome and Syrius Red. Representative stained sections were photographed using a Microphot SA (Nikon) light microscope attached to a Spot RT Slide camera (Diagnostic Instruments) with a 10× objective. Images were processed using Adobe Photoshop CS (Adobe Systems).
# Later-stage cardiomyopathy caused by LMNA mutations is characterized by myocardial fibrosis (21,22). […] We quantified the myocardial fibrotic area of each animal by determining the ratio of fibrotic tissue (blue stained with Gomori's trichrome) to the total tissue area in each micrograph (FIG. 34C). Hearts from DMSO-treated Lmna^H222P/H222P mice had 15.01±0.9% fibrotic tissue per total surface examined (FIG. 34D).
# [2] = tested on: atrial natriuretic factor; assay: Serum atrial natriuretic factor before and after treatment; format: in vivo, mouse; conditions: before (16 weeks) and after (20 weeks) treatment; compared to DMSO-treated mice
# Text: We measured the expression of atrial-natriuretic factor in the serum Lmna^H222P/H222P mice before (16 weeks) and after (20 weeks) the treatment with the MEK1/2 inhibitors (FIG. 3).
# MEK1/2 = conditions: Table 10, description of MEK1/2 inhibitors; cited from earlier work
# [3] = tested on: hearts from Lmna^H222P/H222P mice; assay: Quantitative real-time RT-PCR of mRNAs in hearts of treated mice; format: in vivo, mouse; conditions: for expression of Colla1 and Colla2: 20 weeks of age, 1 mg/kg/day from 16 to 20 weeks
# Text: Total RNA was extracted using the Rneasy isolation kit (Qiagen) as previously described (96). cDNA was synthesized as previously described (96) using Omniscript Reverse Transcriptase (Qiagen) on total cellular RNA. For each replicate in each experiment, RNA from tissue samples of different animals was used. Primers were designed that correspond to mouse RNA sequences using Primer3 (http://frodo.wi.mit.edu/cgi-biniprimer3/primer3_www.cgi). The real-time RT-PCR reaction contained iQ SYBR green super mix (Bio-Rad), 200 nM of each primer and 0.2 μl of template in a 25 μl reaction volume. Amplification was carried out using appropriate primers and the MyiQ Single-Color Real-Time PCR Detection System (Bio-Rad) with an initial denaturation at 95° C. for 2 min followed by 50 cycles at 95° C. for 30 s and 62° C. for 30 s. Relative levels of mRNA expression were calculated using the CT method (67). Individual expression values were normalized by comparison with Gapdh mRNA.
# Real-time reverse transcription-PCR (RT-PCR) was used to quantify tissue RNA levels. Total RNA was extracted from cardiac ventricles of mice using the Rneasy isolation kit (Qiagen) as previously described. cDNA was synthesized using Superscript first strand synthesis system according to the manufacturer's instructions (Invitrogen) on total RNA. For each replicate in each experiment, RNA from tissue samples of different animals was used. Primers were designed correspond to mouse RNA sequences using Primer3 (http://frodo.wi.mit.edu/cgi-bin/primer3/primer3_www.cgi) for Nppa (forward 5′-[…]-3′ [SEQ ID NO: 4], reverse 5′-[…]-3′ [SEQ ID NO: 5]), Nppb (forward 5′-[…]-3′ [SEQ ID NO: 6], reverse 5′-[…]-3′ [SEQ ID NO: 7]), Mlc-2a (forward 5′-[…]-3′ [SEQ ID NO: 8], reverse 5′-[…]-3′ [SEQ ID NO: 9]), Colla1 (forward 5′-[…]-3′ [SEQ ID NO: 10], reverse 5′-[…]-3′ [SEQ ID NO: 11]), Colla2 (forward 5′-[…]-3′ [SEQ ID NO: 12], reverse 5′-[…]-3′ [SEQ ID NO: 13]) and Fn1 (forward 5′-[…]-3′ [SEQ ID NO: 14], reverse 5′-[…]-3′ [SEQ ID NO: 15]). The real-time RT-PCR reaction contained iQ SYBR green super mix (Bio-Rad), 200 nM of each primer, and 0.2 μl of template in a 25 μl reaction volume. Amplification was carried out using the MyiQ Single-Color Real-Time PCR Detection System (Bio-Rad) with an initial denaturation at 95° C. for […] followed by 50 cycles at 95° C. for 30 s and 62° C. for 30 s. Relative levels of mRNA expression were calculated using the ΔΔCT method (2). Individual expression values were normalized by comparison with Gapdh mRNA (forward 5′-[…]-3′ [SEQ ID NO: 16], reverse 5′-[…]-3′ [SEQ ID NO: 17]).
# ERK1/2 = assay: Immunoblot of phosphorylated ERK1/2 versus total ERK1/2 in hearts of treated mice; format: in vivo, mouse; conditions: 1 mg/kg/day from 16 to 20 weeks of age
# Description: Hearts were excised from mice at 16-weeks of age and were homogenized in RIPA extraction buffer (Cell Signalling) containing protease inhibitors (25 […]). Protein samples were subjected to SDS-PAGE, transferred to nitrocellulose membranes and blotted with primary antibodies against ERK1/2 (Santa-Cruz), phosphorylated ERK1/2 (Cell Signaling), JNK (Santa-Cruz), natriuretic peptide precursor A (Santa-Cruz), phosphorylated JNK (Cell Signaling), and Gapdh (Ambion). Secondary antibodies were HRP-conjugated (Amersham). Recognized proteins were visualized by enhanced chemiluminescence (ECL, Amersham). The signal generated using an antibody against Gapdh was used as internal controls to normalize the amounts of protein between immunoblots.
# We assessed the efficacy of the chemical entities in inhibiting their targets in the heart by immunoblot using anti-total ERK1/2 (Santa Cruz) and anti-pERK1/2 (Cell Signaling) antibodies.
# Proteins were loaded on 10% SDS gels and electrotransferred on a […] pore size nitrocellulose membrane (Invitrogen). We used antibodies directed against phosphorylated ERK1/2 (Cell Signaling, 1:1,000), total ERK1/2 (Santa Cruz, 1:2,000), phosphorylated JNK (Cell Signaling, 1:1,000) and total JNK (Santa Cruz, 1:200). The secondary antibodies were coupled to horseradish-peroxydase (Amersham). Recognized proteins were visualized by enhanced chemiluminescence (SuperSignal® West Pico chemiluminescent substrate, Thermo Scientific).
# Lmna^H222P/H222P mice [4] = assay: Echocardiography at 20 weeks of age, second-generation MEK1/2 inhibitors from 16 to 20 weeks; format: in vivo, mouse; conditions: 1 mg/kg/day, 5 days a week from 16 to 20 weeks
# Description: The compounds were administered at a dose of 1 mg/kg/day, 5 days a week to Lmna^H222P/H222P mice, as previously described. Treatment was initiated at 16 weeks of age and continued until the mice were 20 weeks of age. At 20 weeks of age, the mice were analyzed by echocardiography and then sacrificed for biochemical studies. Untreated male Lmna^+/+ and Lmna^H222P/H222P mice were similarly analyzed for comparisons.
# Lmna^H222P/H222P mice [5] = format: in vivo, mouse; conditions: Lmna^H222P/H222P mice at 16 weeks of age; i.p. 5 days a week from 8 to 16 weeks (PD98059, SP600125 3 mg/kg/day); means ± standard deviations
# Description: PD98059 (Calbiochem) and SP600125 (Calbiochem) were dissolved in Dimethyl Sulfoxide (DMSO, Sigma) at a concentration of 0.5 mg/ml and were delivered to a dose of 3 mg/kg/day for 5 days a week. […] The placebo control consisted of DMSO alone. Placebo and inhibitors were administered by intraperitoneal injection using a 27G^5/8 syringe. Treatment was started when mice were 8 weeks of age and continued until 16 weeks of age.
# Lmna H222P knock-in mice were generated and genotyped as described (14). […] Lmna^H222P/H222P mice were separated by sex and were given either vehicle alone (DMSO), the MEK inhibitor PD98059 alone, the JNK inhibitor SP600125 alone, both PD98059 and SP600125 together, the MEK inhibitor U0126 alone, or the MEK inhibitor MEK1/2 alone. All the mice were fed on a chow diet and housed in a barrier facility. The Institutional Animal Care and Use Committee at Columbia University Medical Center approved the use of animals in the study protocol.
# Cardiac function was assessed by echocardiography with a Visualsonics Vevo 770 ultrasound with a 30-MHz transducer applied to the chest wall. Cardiac ventricular dimensions and ejection fraction were measured in 2D-mode and M-mode three times for the number of animals indicated. A “blinded” echocardiographer, unaware of the genotype or treatment, performed the examinations.
# We administered PD98059, at a dose of 3 mg/kg/day or 6 mg/kg/day, or placebo (dimethylsulfoxide; DMSO) by intraperitoneal injection 5 days a week to male homozygous Lmna mutant mice (Lmna^H222P/H222P). […] PD98059 mediates its inhibitory properties by binding to MEK, therefore preventing phosphorylation of ERK1/2.
# Treatment was initiated at 8 weeks of age and continued until the mice were 16 weeks of age. At 16 weeks of age, the mice were analyzed by echocardiography and then sacrificed for histological and biochemical studies. Untreated male Lmna^+/+ and Lmna^H222P/H222P mice were similarly analyzed for comparisons.
# [6] = 1 mg/kg/day from 16 to 20 weeks of age
smiles,measurement,setting,value
Cn1cnc2c(F)c(Nc3ccc(Br)cc3Cl)c(C(=O)NOCCO)cc21 [AZD6244],area of fibrotic tissue per total surface examined,[1],11.90%±1.97%
same,expression of atrial natriuretic factor in serum,[2],significantly decreased
same,IC50,MEK1/2,10 nM
same,decrease of Mlc-1a and Mlc-2a mRNAs compared to hearts of DMSO-treated mice,[3]; [6],approximately 2 fold
same,expression of Colla1 and Colla2,[3],significantly lowered
same,phosphorylation of ERK1 and ERK2 in hearts,ERK1/2,inhibited partially
same,FS,Lmna^H222P/H222P mice [4],25.97%±5.05%
same,LVEDD compared to DMSO-treated mice,Lmna^H222P/H222P mice [4],significantly smaller
same,LVESD compared to DMSO-treated mice,Lmna^H222P/H222P mice [4],significantly smaller
O=C(NOCC1CC1)c1ccc(F)c(F)c1Nc1ccc(I)cc1Cl [CI-1040],area of fibrotic tissue per total surface examined,[1],13.10%±0.96%
same,expression of atrial natriuretic factor in serum,[2],significantly decreased
same,IC50,MEK1/2,1 nM
same,expression of Colla1 and Colla2,[3],significantly lowered
same,phosphorylation of ERK1 and ERK2 in hearts,ERK1/2,inhibited partially
same,FS improvement,Lmna^H222P/H222P mice [4],not improved
same,LVEDD compared to DMSO-treated mice,Lmna^H222P/H222P mice [4],significantly smaller
"N#CC(=C(N)Sc1ccc(N)cc1)c1ccccc1C(F)(F)F [MEK1/2, Z-& E-a-(amino-((4-aminophenyl)thio)methylene)-2-(trifluoromethyl)benzeneacetonitrile]",EF,Lmna^H222P/H222P mice [5],64.43 ± 0.77%
same,FS,Lmna^H222P/H222P mice [5],34.50 ± 0.36%
same,IVSD,Lmna^H222P/H222P mice [5],0.60 ± 0.00 mm
same,LVEDD,Lmna^H222P/H222P mice [5],3.77 ± 0.32 mm
same,LVESD,Lmna^H222P/H222P mice [5],2.62 ± 0.28 mm
same,LVPW,Lmna^H222P/H222P mice [5],0.69 ± 0.08 mm
O=C(NOCC(O)CO)c1ccc(F)c(F)c1Nc1ccc(I)cc1F (centres unmarked) [PD0325901],area of fibrotic tissue per total surface examined,[1],15.06%±0.28%
same,expression of atrial natriuretic factor in serum,[2],trend toward diminished expression
same,cardiac expression of brain natriuretic factor (Nppb),[3]; [6],decreased
same,decrease of Mlc-1a and Mlc-2a mRNAs compared to hearts of DMSO-treated mice,[3]; [6],approximately 2 fold
same,expression of Colla1 and Colla2,[3],significantly lowered
same,phosphorylation of ERK1 and ERK2 in hearts,ERK1/2,inhibited partially
same,FS,Lmna^H222P/H222P mice [4],23.23%±6.33%
"N#CC(=C(N)Sc1ccccc1N)C(C#N)=C(N)Sc1ccccc1N [U0126, 1,4-diamino-2,3-dicyano-1,4-bis(2-aminophenylthio)butadiene]",EF,Lmna^H222P/H222P mice [5],62.83 ± 4.09%
same,FS,Lmna^H222P/H222P mice [5],33.79 ± 3.10%
same,IVSD,Lmna^H222P/H222P mice [5],0.64 ± 0.03 mm
same,LVEDD,Lmna^H222P/H222P mice [5],3.54 ± 0.16 mm
same,LVESD,Lmna^H222P/H222P mice [5],2.47 ± 0.09 mm
same,LVPW,Lmna^H222P/H222P mice [5],0.69 ± 0.11 mm
